ChEMBL document CHEMBL1151162, “Coumarins from Opopanax chironium. New dihydrofuranocoumarins and differential induction of apoptosis by imperatorin and heraclenin” (J Nat Prod, 2004)
Activity calls are given as the source filed them. The rule behind the calls is not given here.

Legend:
Type in all cases: functional, cell-based
Jurkat [1] = assay: Induction of cell cycle arrest in human Jurkat cells assessed as accumulation at G2/M phase after 48 hrs
Jurkat [2] = assay: Induction of cell cycle arrest in human Jurkat cells assessed as accumulation at G2/M phase at 25 ug/mL after 48 hrs
Jurkat [3] = assay: Induction of DNA fragmentation at G1/S phase in human Jurkat cells after 72 hrs by propidium iodide and FITC-dUTP double staining
Jurkat [4] = assay: Induction of apoptosis in human Jurkat cells assessed as hypodiploidic cells after 72 hrs
Jurkat [5] = assay: Induction of DNA fragmentation at G2/M phase in human Jurkat cells after 72 hrs by propidium iodide and FITC-dUTP double staining

SMILES	Activity (Jurkat [1])	Activity (Jurkat [2])	Activity (Jurkat [3])	Activity (Jurkat [4])	Activity (Jurkat [5])
CC(C)=CCOc1c2occc2cc2ccc(=O)oc12	inactive	inactive	Active	–	–
CC1(C)O[C@@H]1COc1c2occc2cc2ccc(=O)oc12	Active	–	–	Active	Active
